Experimental findings from patent US8481537B2, “Caspase inhibitors based of pyridazinone scaffold” (LG Life Sciences Ltd., priority 2006, dated 2013) are described below.

Test [1] has as its system Jurkat cell (ATCC TIB-152). Nature of the test: Jurkat cell apoptosis induced by Fas antibody, WST-1 method. The format is cell-based. The note with it: Homo sapiens, amount of alive cells by WST-1. The method, then:
The […] inhibitory activity of the inhibitors was determined by subjecting Jurkat cell (ATCC TIB-152) to apoptosis using Fas antibody (Upstate Biotech 05-201) and by detecting the color change according to the WST-1 method known in Francoeur A. M. and Assalian A. (1996) Biochemica 3, 19-25 to observe the amount of alive Jurkat cells when the cells were treated by the inhibitor. Spectra MAX 340 Spectrometer of Molecular Device Co. was used at the absorbance wavelength of 440 nm.
(In general: Formazan colour is commonly taken as a measure of viable cells.)

Test [2] concerns the target T1, Caspase-8 (Homo sapiens, UniProt Q14790).
T1 construct: p10 and p20 subunits (Thornberry, N. A. et al, Nature, 1992, 356, 768) were expressed in E. coli; made in house; host or cells: E. coli
Nature of the test: Caspase inhibitory effect, fluorescent substrate AcDEVD-AFC. The class given is biochemical. The note with it: pH 7.5; 2.1 nM caspase-8, 50 μM AcDEVD-AFC, 25° C., pH 7.50; read-out: Caspase-8 Kobs/[I] (converted). How it is done: Caspase-1 and caspase-8 known as cysteine proteases in the form of α2β2 were expressed, purified, and activated by modifying a method known in Thornberry, N. A. et al, Nature, 1992, 356, 768. Thornberry, N. A. Methods in Enzymology, 1994, 244, 615. Walker, N. P. C. et al. Cell, 1994, 78, 343, and caspase-9 was also purified by a similar method, and the inhibitory activity against them was tested. Briefly describing, p10 and p20 subunits (Thornberry, N. A. et al, Nature, 1992, 356, 768) were expressed in E. coli and purified by nickel column and anionic exchange chromatography to give caspase-1, caspase-8 and caspase-9. The fluorescent substrates AcYVAD-AFC for thus obtained caspase-1, AcDEVD-AFC for caspase-8, and AcLEHD-AFC for caspase-9, were used for determining specific activity of the synthesized inhibitors. The enzyme reaction was carried out at 25° C. with various concentrations of the inhibitors in a buffer solution containing 50 mM HEPES(pH 7.50), 10% (w/v) sucrose, 0.1% (w/v) CHAPS, 100 mM NaCl, 1 mM EDTA, and 10 mM DTT in the presence of 50 μM AcYVAD-AFC for 10 nM caspase-1, 50 μM AcDEVD-AFC for 2.1 nM caspase-8, and 150 μM AcLEHD-AFC for 200 nM caspase-9. The inhibitory constants Ki and Kobs of the inhibitors were determined by measuring the reaction velocity with the time lapse using a fluorescent spectrometer and by obtaining the initial rate constant. Ki was calculated from the Lineweaver Burk Plot, and Kobs from the following Equation 1. Kobs=−ln(1−At/Aoo)/t [Equation 1]
At means cleavage rate (%) at time t, and
Aoo means the maximum cleavage rate (%).
Spectra MAX GeminiXS Fluorescent Spectrometer of Molecular Device Co. was used at the excitation wavelength of 405 nm and the emission wavelength of 505 nm.

T1 sequence (Q14790 217-374 limits assumed, species assumed): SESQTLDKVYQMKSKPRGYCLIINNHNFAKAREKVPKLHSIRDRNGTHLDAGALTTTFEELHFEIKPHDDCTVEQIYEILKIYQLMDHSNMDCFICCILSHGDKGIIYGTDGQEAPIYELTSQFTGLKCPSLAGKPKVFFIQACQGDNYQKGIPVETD
T1 sequence (Q14790 385-479 limits assumed, species assumed): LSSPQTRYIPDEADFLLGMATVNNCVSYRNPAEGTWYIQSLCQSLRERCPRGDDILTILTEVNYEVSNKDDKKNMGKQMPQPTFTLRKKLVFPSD

Broadly, the IC50 is the concentration that inhibits the measured activity by half. Low values mean greater potency, high ones weaker potency. As for `CCC(C(=O)NC(CC(=O)O)C(=O)CF)c1c(Cl)cnn(Cc2ccccc2)c1=O` (centres unmarked) [Example 4, 3-[2-(2-Benzyl-5-chloro-3-oxo-2,3-dihydro-pyridazin-4-yl)-butyrylamino]-5-fl uoro-4-oxo-pentanoic acid], in test [1], the half-inhibitory concentration (IC50) stood at 390 nM. In test [2], the kinact/KI is 6830 M⁻¹ s⁻¹.
In test [1], `CCC(C(=O)NC(CC(=O)O)C(=O)CF)c1ccnn(Cc2nccc3ccccc23)c1=O` (centres unmarked) [Example 17, 5-Fluoro-3-[2-(2-isoquinolin-1-ylmethyl-3-oxo-2,3-dihydro-pyridazin-4-yl)-butyrylamino]-4-oxo-pentanoic acid] registered an IC50 of 130 nM. Besides, the kinact/KI in test [2] is 25000 M⁻¹ s⁻¹.
`CCC(C(=O)NC(CC(=O)O)C(=O)CF)c1ccnn(Cc2cccc3ccccc23)c1=O` (centres unmarked) [Example 11, 5-Fluoro-3-[2-(2-naphthalen-1-ylmethyl-3-oxo-2,3-dihydro-pyridazin-4-yl)-butyrylamino]-4-oxo-pentanoic acid] displayed an IC50 in test [1] of 170 nM. Also, in test [2], the kinact/KI is 56700 M⁻¹ s⁻¹.
On to `CCC(C(=O)NC(CC(=O)O)C(=O)CF)c1c(OC)cnn(Cc2ccccc2)c1=O` (centres unmarked) [Example 5, 3-[2-(2-Benzyl-5-methoxy-3-oxo-2,3-dihydro-pyridazin-4-yl)-butyrylamino]-5-fluoro-4-oxo-pentanoic acid], for which, in test [1], the midpoint of inhibition, the IC50, lay at 2070 nM. Besides, the kinact/KI in test [2] is 3830 M⁻¹ s⁻¹.
In the case of `CCC(C(=O)NC(CC(=O)O)C(=O)CF)c1ccnn(Cc2ccccc2C(F)(F)F)c1=O` (centres unmarked) [Example 21, 5-Fluoro-4-oxo-3-{2-[3-oxo-2-(2-trifluoromethyl-benzyl)-2,3-dihydro-pyridazin-4-yl]-butyrylamino}-pentanoic acid], in test [1], the half-inhibitory concentration (IC50) worked out at 43 nM. Moreover, in test [2], the kinact/KI was 66700 M⁻¹ s⁻¹.
`CCC(C(=O)NC(CC(=O)O)C(=O)CF)c1ccnn(Cc2cccc(C(C)(C)C)c2)c1=O` (centres unmarked) [Example 7, 3-2-[2-(3-tert-Butyl-benzyl)-3-oxo-2,3-dihydro-pyridazin-4-yl]-butyrylamino-5-fluoro-4-oxo-pentanoic acid] yielded an IC50 in test [1] of 35 nM. Moreover, the kinact/KI in test [2] is 23300 M⁻¹ s⁻¹.
For `CCC(C(=O)NC(CC(=O)O)C(=O)CF)c1ccnn(Cc2c(C)noc2C)c1=O` (centres unmarked) [Example 15, 3-2-[2-(3,5-Dimethyl-isoxazol-4-ylmethyl)-3-oxo-2,3-dihydro-pyridazin-4-yl]-butyrylamino-5-fluoro-4-oxo-pentanoic acid], in that order: 800 nM and 12000 M⁻¹ s⁻¹.
For `CCC(C(=O)NC(CC(=O)O)C(=O)CF)c1ccnn(Cc2cccc(Cl)c2)c1=O` (centres unmarked) [Example 19, 3-{2-[2-(3-Chloro-benzyl)-3-oxo-2,3-dihydro-pyridazin-4-yl]-butyrylamino}-5-fluoro-4-oxo-pentanoic acid], in that order: 35 nM and 28300 M⁻¹ s⁻¹.
For `CCC(C(=O)NC(CC(=O)O)C(=O)CF)c1ccnn(Cc2cccc(OC)c2)c1=O` (centres unmarked) [Example 10, 5-Fluoro-3-2-[2-(3-methoxy-benzyl)-3-oxo-2,3-dihydro-pyridazin-4-yl]-butyr ylamino-4-oxo-pentanoic acid], in that order: 550 nM and 20000 M⁻¹ s⁻¹.
As for `CC[C@H](C(=O)N[C@@H](CC(=O)O)C(=O)COc1c(F)cccc1F)c1ccnn(Cc2ccccc2C(C)(C)C)c1=O` [Example 27-2, (S)-3-{(S)-2-[2-(2-tert-Butyl-benzyl)-3-oxo-2,3-dihydro-pyridazin-4-yl]-butyrylamino}-5-(2,6-difluoro-phenoxy)-4-oxo-pentanoic acid], the kinact/KI in test [2] is 3170 M⁻¹ s⁻¹.
On the same count and under the same terms, as for `CC[C@H](C(=O)N[C@@H](CC(=O)O)C(=O)COc1c(F)ccc(F)c1F)c1ccnn(Cc2ccccc2C(C)(C)C)c1=O` [Example 26-2, (S)-3-{(S)-2-[2-(2-tert-Butyl-benzyl)-3-oxo-2,3-dihydro-pyridazin-4-yl]-butyrylamino}-4-oxo-5-(2,3,6-trifluoro-phenoxy)-pentanoic acid], the figure is 7830 M⁻¹ s⁻¹.
